Several values for one entry are separate records, joined by “and”; a condition that tells them apart may be missing. Equal entries are not always repeated.
molecular target: TSSK1B (human) (UniProt Q9BXA7); assay: radiometric filter-binding kinase assay, Kinase HotSpot; conditions: compound 0.5 µM; ATP 10 µM
Sequence (Q9BXA7 whole entry, looked up): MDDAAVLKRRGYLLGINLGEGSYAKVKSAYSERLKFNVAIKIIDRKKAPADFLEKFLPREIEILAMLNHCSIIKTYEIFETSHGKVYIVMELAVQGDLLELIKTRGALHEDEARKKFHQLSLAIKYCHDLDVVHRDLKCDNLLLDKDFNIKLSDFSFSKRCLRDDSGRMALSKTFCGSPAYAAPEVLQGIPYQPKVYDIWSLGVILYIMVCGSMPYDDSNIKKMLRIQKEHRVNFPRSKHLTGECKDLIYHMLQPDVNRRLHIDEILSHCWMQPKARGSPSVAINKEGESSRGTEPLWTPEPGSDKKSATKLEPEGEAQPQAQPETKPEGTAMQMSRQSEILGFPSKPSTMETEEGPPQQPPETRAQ

Compared with `Nc1nc(Nc2ccc(S(N)(=O)=O)cc2)nn1C(=S)Nc1c(F)cccc1F`, `O=C1Cc2c([nH]c3ccc([N+](=O)[O-])cc23)-c2ccccc2N1` is higher in residual activity: 13.7% for the first, 74.7% for the second.

molecular target: ROS1 (human) (UniProt P08922); assay: as above; conditions: compound 0.5 µM; ATP 10 µM

First: NC(=O)c1ccc(N(C(N)=O)c2c(F)cccc2F)nc1-c1ccc(F)cc1F
Second: Nc1nc(Nc2ccc(S(N)(=O)=O)cc2)nn1C(=S)Nc1c(F)cccc1F
The residual activity of the first is higher: 95% for the first, 1.68% for the second.

First: O=c1cc(-c2cccc3c2Sc2ccccc2S3)oc(N2CCOCC2)c1
Second: O=C1Cc2c([nH]c3ccc([N+](=O)[O-])cc23)-c2ccccc2N1
The residual activity of the first is higher: 106% for the first, 80.2% for the second.

molecular target: RET (human) (UniProt P07949); assay: as above; conditions: compound 0.5 µM; ATP 10 µM
Sequence (P07949 whole entry, looked up): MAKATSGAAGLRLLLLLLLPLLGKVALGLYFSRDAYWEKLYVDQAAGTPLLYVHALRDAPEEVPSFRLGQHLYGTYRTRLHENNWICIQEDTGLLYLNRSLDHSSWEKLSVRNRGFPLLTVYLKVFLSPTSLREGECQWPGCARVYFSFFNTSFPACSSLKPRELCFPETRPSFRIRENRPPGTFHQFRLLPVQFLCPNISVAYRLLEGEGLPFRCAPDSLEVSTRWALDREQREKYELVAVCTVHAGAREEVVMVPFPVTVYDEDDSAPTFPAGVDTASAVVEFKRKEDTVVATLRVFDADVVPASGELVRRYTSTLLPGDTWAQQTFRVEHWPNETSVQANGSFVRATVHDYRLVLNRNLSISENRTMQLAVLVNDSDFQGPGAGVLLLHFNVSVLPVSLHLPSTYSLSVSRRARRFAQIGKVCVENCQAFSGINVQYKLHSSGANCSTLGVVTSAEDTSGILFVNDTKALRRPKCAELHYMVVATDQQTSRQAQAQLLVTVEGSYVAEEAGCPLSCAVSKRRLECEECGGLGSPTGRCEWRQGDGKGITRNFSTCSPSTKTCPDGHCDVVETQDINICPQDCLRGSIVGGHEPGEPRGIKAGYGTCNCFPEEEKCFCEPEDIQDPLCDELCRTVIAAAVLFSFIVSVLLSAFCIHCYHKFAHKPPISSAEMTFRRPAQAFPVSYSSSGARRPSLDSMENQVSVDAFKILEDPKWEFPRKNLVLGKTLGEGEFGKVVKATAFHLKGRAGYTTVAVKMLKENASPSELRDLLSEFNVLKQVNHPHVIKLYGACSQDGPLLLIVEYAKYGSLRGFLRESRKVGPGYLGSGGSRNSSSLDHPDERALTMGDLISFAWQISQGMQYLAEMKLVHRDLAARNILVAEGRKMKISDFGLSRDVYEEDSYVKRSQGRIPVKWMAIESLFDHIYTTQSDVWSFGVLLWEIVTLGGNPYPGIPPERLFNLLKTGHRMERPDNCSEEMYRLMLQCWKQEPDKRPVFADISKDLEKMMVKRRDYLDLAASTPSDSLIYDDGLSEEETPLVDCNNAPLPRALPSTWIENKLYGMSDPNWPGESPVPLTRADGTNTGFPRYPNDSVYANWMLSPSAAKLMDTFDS

Compared with `NC(=O)c1ccc(N(C(N)=O)c2c(F)cccc2F)nc1-c1ccc(F)cc1F`, `Nc1nc(Nc2ccc(S(N)(=O)=O)cc2)nn1C(=S)Nc1c(F)cccc1F` is lower in residual activity: 93.1% for the first, 3.09% for the second.

Compared with `O=c1cc(-c2cccc3c2Sc2ccccc2S3)oc(N2CCOCC2)c1`, `O=C1Cc2c([nH]c3ccc([N+](=O)[O-])cc23)-c2ccccc2N1` is lower in residual activity: 82.4% for the first, 81.6% for the second.

molecular target: PAK7 (human) (UniProt Q9P286); assay: as above; conditions: compound 0.5 µM; ATP 10 µM
Sequence (Q9P286 whole entry, looked up): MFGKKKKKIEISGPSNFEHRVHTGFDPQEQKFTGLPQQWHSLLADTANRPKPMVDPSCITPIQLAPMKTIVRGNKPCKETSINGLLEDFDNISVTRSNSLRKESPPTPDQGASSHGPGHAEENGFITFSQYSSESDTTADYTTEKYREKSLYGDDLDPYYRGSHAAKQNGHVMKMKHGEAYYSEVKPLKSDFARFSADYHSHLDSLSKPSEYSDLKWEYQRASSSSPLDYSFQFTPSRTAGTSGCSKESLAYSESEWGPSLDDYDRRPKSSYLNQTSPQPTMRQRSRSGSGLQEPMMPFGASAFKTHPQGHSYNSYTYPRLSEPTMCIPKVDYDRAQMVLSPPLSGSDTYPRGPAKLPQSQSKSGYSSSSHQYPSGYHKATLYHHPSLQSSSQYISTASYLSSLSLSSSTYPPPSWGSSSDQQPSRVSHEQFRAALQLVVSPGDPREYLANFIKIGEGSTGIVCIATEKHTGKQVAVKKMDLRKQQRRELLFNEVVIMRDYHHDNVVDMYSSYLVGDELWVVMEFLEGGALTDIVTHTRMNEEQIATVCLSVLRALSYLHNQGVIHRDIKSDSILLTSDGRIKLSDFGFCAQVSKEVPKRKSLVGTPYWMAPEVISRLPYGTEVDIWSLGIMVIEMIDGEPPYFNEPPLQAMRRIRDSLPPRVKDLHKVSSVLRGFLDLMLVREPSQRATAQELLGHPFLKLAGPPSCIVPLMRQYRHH

Going from `NC(=O)c1ccc(N(C(N)=O)c2c(F)cccc2F)nc1-c1ccc(F)cc1F` to `Nc1nc(Nc2ccc(S(N)(=O)=O)cc2)nn1C(=S)Nc1c(F)cccc1F`, the residual activity falls from 96.4% to 43.8%.

Compared with `O=c1cc(-c2cccc3c2Sc2ccccc2S3)oc(N2CCOCC2)c1`, `O=C1Cc2c([nH]c3ccc([N+](=O)[O-])cc23)-c2ccccc2N1` is lower in residual activity: 98.8% for the first, 71.4% for the second.

molecular target: NTRK2 (human) (UniProt Q16620); assay: as above; conditions: compound 0.5 µM; ATP 10 µM

Going from `NC(=O)c1ccc(N(C(N)=O)c2c(F)cccc2F)nc1-c1ccc(F)cc1F` to `Nc1nc(Nc2ccc(S(N)(=O)=O)cc2)nn1C(=S)Nc1c(F)cccc1F`, the residual activity falls from 102% to 11.8%.

Compared with `O=c1cc(-c2cccc3c2Sc2ccccc2S3)oc(N2CCOCC2)c1`, `O=C1Cc2c([nH]c3ccc([N+](=O)[O-])cc23)-c2ccccc2N1` is lower in residual activity: 99.1% for the first, 86.1% for the second.

molecular target: MAPKAPK2 (human) (UniProt P49137); assay: as above; conditions: compound 0.5 µM; ATP 10 µM
Sequence (P49137 whole entry, looked up): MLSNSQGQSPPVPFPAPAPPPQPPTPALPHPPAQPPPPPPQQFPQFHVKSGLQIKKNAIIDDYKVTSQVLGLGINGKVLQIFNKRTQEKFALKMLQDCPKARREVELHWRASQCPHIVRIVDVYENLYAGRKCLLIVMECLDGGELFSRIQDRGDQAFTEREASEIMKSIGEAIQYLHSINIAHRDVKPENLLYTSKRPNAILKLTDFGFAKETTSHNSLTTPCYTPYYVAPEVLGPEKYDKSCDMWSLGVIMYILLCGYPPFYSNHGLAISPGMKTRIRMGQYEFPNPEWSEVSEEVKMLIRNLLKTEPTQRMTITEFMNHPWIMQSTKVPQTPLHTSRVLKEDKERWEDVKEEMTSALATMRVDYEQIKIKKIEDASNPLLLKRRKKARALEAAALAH

Going from `NC(=O)c1ccc(N(C(N)=O)c2c(F)cccc2F)nc1-c1ccc(F)cc1F` to `Nc1nc(Nc2ccc(S(N)(=O)=O)cc2)nn1C(=S)Nc1c(F)cccc1F`, the residual activity falls from 98.9% to 91.1%.

Compared with `O=c1cc(-c2cccc3c2Sc2ccccc2S3)oc(N2CCOCC2)c1`, `O=C1Cc2c([nH]c3ccc([N+](=O)[O-])cc23)-c2ccccc2N1` is lower in residual activity: 94.2% for the first, 77.4% for the second.

molecular target: PRKG1 (human) (UniProt Q13976); assay: as above; conditions: compound 0.5 µM; ATP 10 µM
Sequence (Q13976 whole entry, looked up): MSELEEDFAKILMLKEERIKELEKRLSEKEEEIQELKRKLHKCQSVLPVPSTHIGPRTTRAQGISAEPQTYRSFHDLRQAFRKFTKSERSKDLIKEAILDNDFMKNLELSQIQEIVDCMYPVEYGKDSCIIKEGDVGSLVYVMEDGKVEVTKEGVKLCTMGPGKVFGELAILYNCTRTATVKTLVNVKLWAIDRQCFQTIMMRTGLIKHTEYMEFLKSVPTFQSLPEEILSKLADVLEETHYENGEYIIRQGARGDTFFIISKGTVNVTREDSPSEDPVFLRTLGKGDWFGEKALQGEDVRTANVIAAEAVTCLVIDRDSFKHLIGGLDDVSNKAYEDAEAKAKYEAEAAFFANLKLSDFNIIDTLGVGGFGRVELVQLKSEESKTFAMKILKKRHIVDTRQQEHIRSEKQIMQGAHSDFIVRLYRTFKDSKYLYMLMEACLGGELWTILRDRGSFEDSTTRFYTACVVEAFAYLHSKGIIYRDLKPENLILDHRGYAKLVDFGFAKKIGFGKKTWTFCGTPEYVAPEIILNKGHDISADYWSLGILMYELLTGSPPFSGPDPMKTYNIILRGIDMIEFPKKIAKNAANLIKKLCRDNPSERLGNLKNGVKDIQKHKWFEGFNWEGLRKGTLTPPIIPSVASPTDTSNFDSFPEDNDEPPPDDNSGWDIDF

In the case of `NC(=O)c1ccc(N(C(N)=O)c2c(F)cccc2F)nc1-c1ccc(F)cc1F`, the residual activity is reported as 88.1% and 95.7%.
With `O=c1cc(-c2cccc3c2Sc2ccccc2S3)oc(N2CCOCC2)c1` the residual activity was 102% and 103%.
With `Nc1nc(Nc2ccc(S(N)(=O)=O)cc2)nn1C(=S)Nc1c(F)cccc1F` the residual activity was 85.1% and 91.3%.
In the case of `O=C1Cc2c([nH]c3ccc([N+](=O)[O-])cc23)-c2ccccc2N1`, the residual activity is reported as 94.3% and 96.8%.

molecular target: GSK3A (human) (UniProt P49840); assay: as above; conditions: compound 0.5 µM; ATP 10 µM
Sequence (P49840 whole entry, looked up): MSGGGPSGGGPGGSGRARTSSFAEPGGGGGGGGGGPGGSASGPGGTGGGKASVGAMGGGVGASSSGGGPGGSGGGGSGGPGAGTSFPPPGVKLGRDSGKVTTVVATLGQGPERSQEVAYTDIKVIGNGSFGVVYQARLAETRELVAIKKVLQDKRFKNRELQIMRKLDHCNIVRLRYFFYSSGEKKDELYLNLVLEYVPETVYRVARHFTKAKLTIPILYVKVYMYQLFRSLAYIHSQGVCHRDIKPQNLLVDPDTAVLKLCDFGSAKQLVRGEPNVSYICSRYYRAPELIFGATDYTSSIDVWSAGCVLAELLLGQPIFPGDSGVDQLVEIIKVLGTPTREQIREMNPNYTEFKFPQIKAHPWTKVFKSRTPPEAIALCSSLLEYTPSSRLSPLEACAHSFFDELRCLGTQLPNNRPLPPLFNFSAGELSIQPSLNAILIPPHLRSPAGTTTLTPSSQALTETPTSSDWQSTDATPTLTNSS

Going from `NC(=O)c1ccc(N(C(N)=O)c2c(F)cccc2F)nc1-c1ccc(F)cc1F` to `Nc1nc(Nc2ccc(S(N)(=O)=O)cc2)nn1C(=S)Nc1c(F)cccc1F`, the residual activity falls from 98.6% to 6.3%.

First: O=c1cc(-c2cccc3c2Sc2ccccc2S3)oc(N2CCOCC2)c1
Second: O=C1Cc2c([nH]c3ccc([N+](=O)[O-])cc23)-c2ccccc2N1
The residual activity of the first is higher: 86.7% for the first, 0.971% for the second.

molecular target: SIK2 (human) (UniProt Q9H0K1); assay: as above; conditions: compound 0.5 µM; ATP 10 µM
Sequence (Q9H0K1 whole entry, looked up): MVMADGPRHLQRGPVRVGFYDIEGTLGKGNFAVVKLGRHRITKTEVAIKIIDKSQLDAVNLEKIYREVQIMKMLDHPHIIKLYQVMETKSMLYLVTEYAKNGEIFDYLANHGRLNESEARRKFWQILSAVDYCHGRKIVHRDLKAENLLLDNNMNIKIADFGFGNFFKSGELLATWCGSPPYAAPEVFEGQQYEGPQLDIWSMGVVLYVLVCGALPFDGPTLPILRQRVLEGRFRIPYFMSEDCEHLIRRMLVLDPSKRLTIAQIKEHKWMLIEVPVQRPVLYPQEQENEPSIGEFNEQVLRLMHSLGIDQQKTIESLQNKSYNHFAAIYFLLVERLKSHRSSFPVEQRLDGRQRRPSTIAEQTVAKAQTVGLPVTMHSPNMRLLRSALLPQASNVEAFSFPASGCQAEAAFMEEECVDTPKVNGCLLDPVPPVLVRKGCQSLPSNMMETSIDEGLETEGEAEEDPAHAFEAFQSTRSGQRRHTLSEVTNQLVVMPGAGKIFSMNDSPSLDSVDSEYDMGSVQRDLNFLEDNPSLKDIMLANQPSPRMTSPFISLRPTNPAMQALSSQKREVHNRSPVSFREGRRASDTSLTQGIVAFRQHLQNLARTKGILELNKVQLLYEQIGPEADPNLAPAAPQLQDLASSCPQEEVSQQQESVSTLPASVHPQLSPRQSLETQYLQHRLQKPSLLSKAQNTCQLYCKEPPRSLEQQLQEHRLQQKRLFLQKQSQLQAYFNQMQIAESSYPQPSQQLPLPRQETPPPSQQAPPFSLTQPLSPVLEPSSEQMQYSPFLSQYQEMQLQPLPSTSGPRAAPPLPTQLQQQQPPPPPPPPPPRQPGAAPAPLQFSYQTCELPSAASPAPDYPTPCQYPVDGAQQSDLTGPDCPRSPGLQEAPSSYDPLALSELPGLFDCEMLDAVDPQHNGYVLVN

First: NC(=O)c1ccc(N(C(N)=O)c2c(F)cccc2F)nc1-c1ccc(F)cc1F
Second: Nc1nc(Nc2ccc(S(N)(=O)=O)cc2)nn1C(=S)Nc1c(F)cccc1F
The residual activity of the first is higher: 95.1% for the first, 16.1% for the second.

Going from `O=c1cc(-c2cccc3c2Sc2ccccc2S3)oc(N2CCOCC2)c1` to `O=C1Cc2c([nH]c3ccc([N+](=O)[O-])cc23)-c2ccccc2N1`, the residual activity falls from 113% to 56.5%.

molecular target: IGF1R (human) (UniProt P08069); assay: as above; conditions: compound 0.5 µM; ATP 10 µM

Compared with `NC(=O)c1ccc(N(C(N)=O)c2c(F)cccc2F)nc1-c1ccc(F)cc1F`, `Nc1nc(Nc2ccc(S(N)(=O)=O)cc2)nn1C(=S)Nc1c(F)cccc1F` is lower in residual activity: 92.3% for the first, 0.625% for the second.

First: O=c1cc(-c2cccc3c2Sc2ccccc2S3)oc(N2CCOCC2)c1
Second: O=C1Cc2c([nH]c3ccc([N+](=O)[O-])cc23)-c2ccccc2N1
The residual activity of the first is higher: 98.2% for the first, 93% for the second.

molecular target: EPHB3 (human) (UniProt P54753); assay: as above; conditions: compound 0.5 µM; ATP 10 µM

Compared with `NC(=O)c1ccc(N(C(N)=O)c2c(F)cccc2F)nc1-c1ccc(F)cc1F`, `Nc1nc(Nc2ccc(S(N)(=O)=O)cc2)nn1C(=S)Nc1c(F)cccc1F` is higher in residual activity: 65.8% for the first, 90.4% for the second.

Compared with `O=c1cc(-c2cccc3c2Sc2ccccc2S3)oc(N2CCOCC2)c1`, `O=C1Cc2c([nH]c3ccc([N+](=O)[O-])cc23)-c2ccccc2N1` is lower in residual activity: 105% for the first, 103% for the second.

— the kinase profiling compilation of Christmann-Franck et al. (2016)
